# In patent publication US20230085307A1, “PYRIDAZINONE COMPOUND AND HERBICIDE” (NISSAN CHEMICAL CORPORATION, priority 2019, published 2023):
# Columns and labels:
# late watergrass = test: Test Example 1: herbicidal activity, application before weed generation under submerged conditions (Table 16, symbol A); format: in vivo, late watergrass (Echinochloa oryzicola)
# Summary of the method: (§1)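 Alluvial soil was flooded to 4 cm depth, weed seeds were sown mixed and 2.5-leaf rice seedlings were transplanted. On sowing day, the compound's emulsion, diluted in water to a set dose, was applied to the water surface. Plants grew at 25–30 °C and were scored 0–5 after three weeks.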
# Japanese bulrush = test: Test Example 1: herbicidal activity, application before weed generation under submerged conditions (Table 16, symbol B); format: in vivo, Japanese bulrush (Schoenoplectus juncoides)
# Summary of the method: as §1
# oval-leafed pondweed = test: Test Example 1: herbicidal activity, application before weed generation under submerged conditions (Table 16, symbol C); format: in vivo, oval-leafed pondweed (Monochoria vaginalis)
# Summary of the method: as §1
# barnyard grass [1] = test: Test Example 3: herbicidal effect by foliage application, Wagner pot (Table 18, symbol H); format: in vivo, barnyard grass (Echinochloa crus-galli)
# Summary of the method: (§2)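 Plants were sown in alluvial soil held under 0.1–0.5 cm standing water and grown 14 days in a greenhouse at 25–30 °C. An emulsifiable formulation, water-diluted to the set dose, was then sprayed onto the foliage, and effects were scored three weeks later using previously defined criteria.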
# Chinese sprangletop = test: Test Example 3: herbicidal effect by foliage application, Wagner pot (Table 18, symbol D); format: in vivo, chinese sprangletop (Leptochloa chinensis)
# Summary of the method: as §2
# rice flat sedge = test: Test Example 3: herbicidal effect by foliage application, Wagner pot (Table 18, symbol E); format: in vivo, rice flat sedge (Cyperus iria)
# Summary of the method: as §2
# southern crabgrass [2] = test: Test Example 4: herbicidal effect by soil treatment (Table 19, symbol F); format: in vivo, southern crabgrass (Digitaria ciliaris)
# Summary of the method: (§3)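 Seeds were sown in sterilized diluvial soil and covered with about 1.5 cm of soil. An emulsion formulation diluted with water to a predetermined herbicide amount was sprayed evenly onto the soil surface. Plants grew in a greenhouse at 25° C. to 30° C., and the effect was scored three weeks after application using criteria from an earlier test.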
# green foxtail [3] = test: Test Example 4: herbicidal effect by soil treatment (Table 19, symbol G); format: in vivo, green foxtail (Setaria viridis)
# Summary of the method: as §3
# barnyard grass [4] = test: Test Example 4: herbicidal effect by soil treatment (Table 19, symbol H); format: in vivo, barnyard grass (Echinochloa crus-galli)
# Summary of the method: as §3
# wild oat [5] = test: Test Example 4: herbicidal effect by soil treatment (Table 19, symbol I); format: in vivo, wild oat (Avena fatua)
# Summary of the method: as §3
# blackgrass [6] = test: Test Example 4: herbicidal effect by soil treatment (Table 19, symbol J); format: in vivo, blackgrass (Alopecurus myosuroides)
# Summary of the method: as §3
# Italian ryegrass [7] = test: Test Example 4: herbicidal effect by soil treatment (Table 19, symbol K); format: in vivo, Italian ryegrass (Lolium multiflorum)
# Summary of the method: as §3
# windgrass [8] = test: Test Example 4: herbicidal effect by soil treatment (Table 19, symbol L); format: in vivo, windgrass (Apera spica-venti)
# Summary of the method: as §3
# velvetleaf [9] = test: Test Example 4: herbicidal effect by soil treatment (Table 19, symbol M); format: in vivo, velvetleaf (Abutilon theophrasti)
# Summary of the method: as §3
# redroot pigweed = test: Test Example 4: herbicidal effect by soil treatment (Table 19, symbol N); format: in vivo, redroot pigweed (Amaranthus retroflexus)
# Summary of the method: as §3
# lambsquarters [10] = test: Test Example 4: herbicidal effect by soil treatment (Table 19, symbol O); format: in vivo, lambsquarters (Chenopodium album)
# Summary of the method: as §3
# chickweed = test: Test Example 4: herbicidal effect by soil treatment (Table 19, symbol P); format: in vivo, common chickweed (Stellaria media)
# Summary of the method: as §3
# persian speedwell [11] = test: Test Example 4: herbicidal effect by soil treatment (Table 19, symbol R); format: in vivo, Persian speedwell (Veronica persica)
# Summary of the method: as §3
# southern crabgrass [12] = test: Test Example 5: herbicidal effect by foliage application, plastic box (Table 20, symbol F); format: in vivo, southern crabgrass (Digitaria ciliaris); conditions: foliage application, three weeks after application
# Summary of the method: (§4)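 Plants sown in sterilized diluvial soil and grown 14 days in a greenhouse at 25° C to 30° C, then sprayed on the foliage with the compound's emulsion diluted in water to a predetermined herbicide amount. Injury to weeds and crops scored three weeks after application on a visual rating scale.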
# green foxtail [13] = test: Test Example 5: herbicidal effect by foliage application, plastic box (Table 20, symbol G); format: in vivo, green foxtail (Setaria viridis); conditions: foliage application, three weeks after application
# Summary of the method: as §4
# barnyard grass [14] = test: Test Example 5: herbicidal effect by foliage application, plastic box (Table 20, symbol H); format: in vivo, barnyard grass (Echinochloa crus-galli); conditions: foliage application, three weeks after application
# Summary of the method: as §4
# wild oat [15] = test: Test Example 5: herbicidal effect by foliage application, plastic box (Table 20, symbol I); format: in vivo, wild oat (Avena fatua); conditions: foliage application, three weeks after application
# Summary of the method: as §4
# blackgrass [16] = test: Test Example 5: herbicidal effect by foliage application, plastic box (Table 20, symbol J); format: in vivo, blackgrass (Alopecurus myosuroides); conditions: foliage application, three weeks after application
# Summary of the method: as §4
# Italian ryegrass [17] = test: Test Example 5: herbicidal effect by foliage application, plastic box (Table 20, symbol K); format: in vivo, Italian ryegrass (Lolium multiflorum); conditions: foliage application, three weeks after application
# Summary of the method: as §4
# windgrass [18] = test: Test Example 5: herbicidal effect by foliage application, plastic box (Table 20, symbol L); format: in vivo, windgrass (Apera spica-venti); conditions: foliage application, three weeks after application
# Summary of the method: as §4
# velvetleaf [19] = test: Test Example 5: herbicidal effect by foliage application, plastic box (Table 20, symbol M); format: in vivo, velvetleaf (Abutilon theophrasti); conditions: foliage application, three weeks after application
# Summary of the method: as §4
# lambsquarters [20] = test: Test Example 5: herbicidal effect by foliage application, plastic box (Table 20, symbol O); format: in vivo, lambsquarters (Chenopodium album); conditions: foliage application, three weeks after application
# Summary of the method: as §4
# persian speedwell [21] = test: Test Example 5: herbicidal effect by foliage application, plastic box (Table 20, symbol R); format: in vivo, Persian speedwell (Veronica persica); conditions: foliage application, three weeks after application
# Summary of the method: as §4
# [22] = amount of applied herbicide 320 g/ha
# [23] = amount of applied herbicide 344 g/ha
smiles,measurement,setting,value
CCCC(=O)Oc1c(C)nn(C)c(=O)c1-c1c(-c2ccccc2OCC)sc2cc(OC)c(Cl)cc12 [5-073],"Herbicidal effect, A: late watergrass",late watergrass; [22],5 (Herbicidal rate of 90% or more (almost completely withered))
same,"Herbicidal effect, B: Japanese bulrush",Japanese bulrush; [22],4 (Herbicidal rate of 70% or more and less than 90%)
same,"Herbicidal effect, C: oval-leafed pondweed",oval-leafed pondweed; [22],4 (Herbicidal rate of 70% or more and less than 90%)
same,herbicidal effect on barnyard grass (H),barnyard grass [1]; 320 g/ha,5 (Herbicidal rate of 90% or more (almost completely withered))
same,herbicidal effect on Chinese sprangletop (D),Chinese sprangletop; 320 g/ha,0 (Herbicidal rate of 5% or less (almost no effect))
same,herbicidal effect on rice flat sedge (E),rice flat sedge; 320 g/ha,0 (Herbicidal rate of 5% or less (almost no effect))
same,"F: southern crabgrass, herbicidal effect grade",southern crabgrass [2]; [22],0 (Herbicidal rate of 5% or less (almost no effect))
same,"G: green foxtail, herbicidal effect grade",green foxtail [3]; [22],2 (Herbicidal rate of 20% or more and less than 40%)
same,"H: barnyard grass, herbicidal effect grade",barnyard grass [4]; [22],0 (Herbicidal rate of 5% or less (almost no effect))
same,"I: wild oat, herbicidal effect grade",wild oat [5]; [22],0 (Herbicidal rate of 5% or less (almost no effect))
same,"J: blackgrass, herbicidal effect grade",blackgrass [6]; [22],0 (Herbicidal rate of 5% or less (almost no effect))
same,"K: Italian ryegrass, herbicidal effect grade",Italian ryegrass [7]; [22],0 (Herbicidal rate of 5% or less (almost no effect))
same,"L: windgrass, herbicidal effect grade",windgrass [8]; [22],0 (Herbicidal rate of 5% or less (almost no effect))
same,"M: velvetleaf, herbicidal effect grade",velvetleaf [9]; [22],0 (Herbicidal rate of 5% or less (almost no effect))
same,"N: redroot pigweed, herbicidal effect grade",redroot pigweed; [22],1 (Herbicidal rate of 5% or more and less than 20%)
same,"O: lambsquarters, herbicidal effect grade",lambsquarters [10]; [22],0 (Herbicidal rate of 5% or less (almost no effect))
same,"P: chickweed, herbicidal effect grade",chickweed; [22],0 (Herbicidal rate of 5% or less (almost no effect))
same,"R: persian speedwell, herbicidal effect grade",persian speedwell [11]; [22],0 (Herbicidal rate of 5% or less (almost no effect))
same,herbicidal effect on southern crabgrass (F),southern crabgrass [12]; 320 g/ha,5 (Herbicidal rate of 90% or more (almost completely withered))
same,herbicidal effect on green foxtail (G),green foxtail [13]; 320 g/ha,5 (Herbicidal rate of 90% or more (almost completely withered))
same,herbicidal effect on barnyard grass (H),barnyard grass [14]; 320 g/ha,5 (Herbicidal rate of 90% or more (almost completely withered))
same,herbicidal effect on wild oat (I),wild oat [15]; 320 g/ha,0 (Herbicidal rate of 5% or less (almost no effect))
same,herbicidal effect on blackgrass (J),blackgrass [16]; 320 g/ha,0 (Herbicidal rate of 5% or less (almost no effect))
same,herbicidal effect on Italian ryegrass (K),Italian ryegrass [17]; 320 g/ha,0 (Herbicidal rate of 5% or less (almost no effect))
same,herbicidal effect on windgrass (L),windgrass [18]; 320 g/ha,3 (Herbicidal rate of 40% or more and less than 70%)
same,herbicidal effect on velvetleaf (M),velvetleaf [19]; 320 g/ha,4 (Herbicidal rate of 70% or more and less than 90%)
same,herbicidal effect on lambsquarters (O),lambsquarters [20]; 320 g/ha,4 (Herbicidal rate of 70% or more and less than 90%)
same,herbicidal effect on persian speedwell (R),persian speedwell [21]; 320 g/ha,0 (Herbicidal rate of 5% or less (almost no effect))
CCCC(=O)Oc1c(C)nn(C)c(=O)c1-c1c(-c2ccc(F)cc2OC)sc2cc(OC)c(Cl)cc12 [5-076],"Herbicidal effect, A: late watergrass",late watergrass; [23],2 (Herbicidal rate of 20% or more and less than 40%)
same,"Herbicidal effect, B: Japanese bulrush",Japanese bulrush; [23],0 (Herbicidal rate of 5% or less (almost no effect))
same,"Herbicidal effect, C: oval-leafed pondweed",oval-leafed pondweed; [23],1 (Herbicidal rate of 5% or more and less than 20%)
same,herbicidal effect on barnyard grass (H),barnyard grass [1]; 344 g/ha,5 (Herbicidal rate of 90% or more (almost completely withered))
same,herbicidal effect on Chinese sprangletop (D),Chinese sprangletop; 344 g/ha,0 (Herbicidal rate of 5% or less (almost no effect))
same,herbicidal effect on rice flat sedge (E),rice flat sedge; 344 g/ha,0 (Herbicidal rate of 5% or less (almost no effect))
same,"F: southern crabgrass, herbicidal effect grade",southern crabgrass [2]; [23],3 (Herbicidal rate of 40% or more and less than 70%)
same,"G: green foxtail, herbicidal effect grade",green foxtail [3]; [23],3 (Herbicidal rate of 40% or more and less than 70%)
same,"H: barnyard grass, herbicidal effect grade",barnyard grass [4]; [23],1 (Herbicidal rate of 5% or more and less than 20%)
same,"I: wild oat, herbicidal effect grade",wild oat [5]; [23],0 (Herbicidal rate of 5% or less (almost no effect))
same,"J: blackgrass, herbicidal effect grade",blackgrass [6]; [23],0 (Herbicidal rate of 5% or less (almost no effect))
same,"K: Italian ryegrass, herbicidal effect grade",Italian ryegrass [7]; [23],0 (Herbicidal rate of 5% or less (almost no effect))
same,"L: windgrass, herbicidal effect grade",windgrass [8]; [23],0 (Herbicidal rate of 5% or less (almost no effect))
same,"M: velvetleaf, herbicidal effect grade",velvetleaf [9]; [23],1 (Herbicidal rate of 5% or more and less than 20%)
same,"N: redroot pigweed, herbicidal effect grade",redroot pigweed; [23],4 (Herbicidal rate of 70% or more and less than 90%)
same,"O: lambsquarters, herbicidal effect grade",lambsquarters [10]; [23],3 (Herbicidal rate of 40% or more and less than 70%)
same,"P: chickweed, herbicidal effect grade",chickweed; [23],0 (Herbicidal rate of 5% or less (almost no effect))
same,"R: persian speedwell, herbicidal effect grade",persian speedwell [11]; [23],0 (Herbicidal rate of 5% or less (almost no effect))
same,herbicidal effect on southern crabgrass (F),southern crabgrass [12]; 344 g/ha,1 (Herbicidal rate of 5% or more and less than 20%)
same,herbicidal effect on green foxtail (G),green foxtail [13]; 344 g/ha,4 (Herbicidal rate of 70% or more and less than 90%)
same,herbicidal effect on barnyard grass (H),barnyard grass [14]; 344 g/ha,3 (Herbicidal rate of 40% or more and less than 70%)
same,herbicidal effect on wild oat (I),wild oat [15]; 344 g/ha,0 (Herbicidal rate of 5% or less (almost no effect))
same,herbicidal effect on blackgrass (J),blackgrass [16]; 344 g/ha,1 (Herbicidal rate of 5% or more and less than 20%)
same,herbicidal effect on Italian ryegrass (K),Italian ryegrass [17]; 344 g/ha,0 (Herbicidal rate of 5% or less (almost no effect))
same,herbicidal effect on windgrass (L),windgrass [18]; 344 g/ha,3 (Herbicidal rate of 40% or more and less than 70%)
same,herbicidal effect on velvetleaf (M),velvetleaf [19]; 344 g/ha,3 (Herbicidal rate of 40% or more and less than 70%)
same,herbicidal effect on lambsquarters (O),lambsquarters [20]; 344 g/ha,4 (Herbicidal rate of 70% or more and less than 90%)
same,herbicidal effect on persian speedwell (R),persian speedwell [21]; 344 g/ha,0 (Herbicidal rate of 5% or less (almost no effect))
